Earlier results on 5 compounds are cited in patent publication US20060142288A1, “Combinations and methods for headaches” (priority 2004, published 2006).

One data set addresses T1, canine COX-3 (Canis lupus familiaris, UniProt Q8HZR1).
T1 sequence (Q8HZR1 1-633 isoform Q8HZR1-2): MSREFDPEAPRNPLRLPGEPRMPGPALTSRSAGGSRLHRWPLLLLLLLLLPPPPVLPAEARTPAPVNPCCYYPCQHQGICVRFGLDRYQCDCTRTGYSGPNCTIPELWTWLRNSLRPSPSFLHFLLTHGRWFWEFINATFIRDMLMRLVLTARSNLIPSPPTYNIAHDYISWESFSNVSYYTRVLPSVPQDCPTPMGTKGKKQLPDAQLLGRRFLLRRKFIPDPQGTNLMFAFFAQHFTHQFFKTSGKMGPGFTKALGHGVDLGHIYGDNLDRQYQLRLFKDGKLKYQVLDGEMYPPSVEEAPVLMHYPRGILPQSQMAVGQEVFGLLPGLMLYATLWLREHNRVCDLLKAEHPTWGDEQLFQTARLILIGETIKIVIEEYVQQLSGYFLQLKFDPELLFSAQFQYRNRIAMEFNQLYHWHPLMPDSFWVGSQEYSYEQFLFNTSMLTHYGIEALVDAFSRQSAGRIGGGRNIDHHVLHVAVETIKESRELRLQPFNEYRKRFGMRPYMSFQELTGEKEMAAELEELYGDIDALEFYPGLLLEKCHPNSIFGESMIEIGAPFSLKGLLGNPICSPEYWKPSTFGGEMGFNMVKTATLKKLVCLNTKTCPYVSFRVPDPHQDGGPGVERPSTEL
As to conditions: canine COX-3 compared with murine COX-1 and COX-2.

For data set [1] the following is noted: 500 mg daily, six year trial.
The conditions of data set [2]: 13.5 mg/kg/day or ~1 g per day.
The conditions of data set [3]: 650 mg/day, migraine patients.
Where [4] appears, read: ASA 500 mg TID, metoprolol in the same study.

Regarding `Cc1c(N(C)CS(=O)(=O)[O-])c(=O)n(-c2ccccc2)n1C.[Na+]` [dipyrone], at canine COX-3, the “selective inhibition of COX-3” value is “selectively inhibit”.

As to `CC(=O)Nc1ccc(O)cc1` [acetaminophen], the “selective inhibition of COX-3” value at canine COX-3 is given as “selectively inhibit”.

Regarding `CCOc1ccc(NC(C)=O)cc1` [phenacetin], the “selective inhibition of COX-3” value at canine COX-3 was “selectively inhibit”.

Regarding `Cc1cc(=O)n(-c2ccccc2)n1C` [antipyrine], the “selective inhibition of COX-3” value at canine COX-3 was “selectively inhibit”.

With `CC(=O)Oc1ccccc1C(=O)O` [ASA, acetylsalicyclic acid], the overall migraine frequency result (500 mg TID, p<0.001) is “reduced significantly”. For the same compound, under setting [4], the “subjects with a reduction of attacks >50% (number of subjects)” value is 3 of 22 and the “subjects with a reduction of attacks >50% (percent of subjects)” value is 14%. Also, the “reduction of the incidence of migraine” value in data set [1] is 30%. Also, the “frequency, severity and duration of migraine attacks” value in data set [2] is “significantly decrease”. The “patients with a reduction of more than 50% in headache frequency” value in data set [3] is given as 9 of 12.
